In publication PMC8017969, “Redox regulation of NADP-malate dehydrogenase is vital for land plants under fluctuating light environment” (Proceedings of the National Academy of Sciences of the …, 2021):

What was measured:
[1] = target: T1, MDHWT (chloroplast NADP-malate dehydrogenase) (Arabidopsis thaliana, UniProt Q8H1E2); test: NADPH oxidation monitored at […] nm, Michaelis-Menten fit; format: biochemical; conditions: reduced enzyme (pretreated with Trx-f1 and DTT); 0-200 μM oxaloacetate, 100 μM NADPH, 0.01 μM MDH, pH 7.5, 50 mM NaCl, 25 °C
T1 construct: gene At5g58330; mature enzyme from Ser54 plus start Met (transit peptide removed), pET-23c, expressed in E. coli, purified with added size exclusion step
T1 sequence (Q8H1E2 54-443): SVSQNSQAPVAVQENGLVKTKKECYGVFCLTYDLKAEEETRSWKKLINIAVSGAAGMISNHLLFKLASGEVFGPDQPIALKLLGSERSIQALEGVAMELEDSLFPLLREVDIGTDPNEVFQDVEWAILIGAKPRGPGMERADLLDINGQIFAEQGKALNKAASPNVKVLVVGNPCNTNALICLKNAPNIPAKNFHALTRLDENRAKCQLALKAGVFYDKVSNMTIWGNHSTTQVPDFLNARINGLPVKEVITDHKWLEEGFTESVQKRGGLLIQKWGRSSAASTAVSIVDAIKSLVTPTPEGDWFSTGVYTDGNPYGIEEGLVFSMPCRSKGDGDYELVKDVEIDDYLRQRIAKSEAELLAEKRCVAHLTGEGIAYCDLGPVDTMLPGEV

[2] = target: T2, MDHΔC (Arabidopsis thaliana, UniProt Q8H1E2); test: as above; format: biochemical; conditions: reduced enzyme (pretreated with Trx-f1 and DTT); 0-200 μM oxaloacetate, 100 μM NADPH, 0.01 μM MDH, pH 7.5, 50 mM NaCl, 25 °C
T2 construct: gene At5g58330; mature enzyme from Ser54 plus start Met, C-terminal extension from Cys430 to C terminus deleted, pET-23c, expressed in E. coli
T2 sequence (Q8H1E2 54-429): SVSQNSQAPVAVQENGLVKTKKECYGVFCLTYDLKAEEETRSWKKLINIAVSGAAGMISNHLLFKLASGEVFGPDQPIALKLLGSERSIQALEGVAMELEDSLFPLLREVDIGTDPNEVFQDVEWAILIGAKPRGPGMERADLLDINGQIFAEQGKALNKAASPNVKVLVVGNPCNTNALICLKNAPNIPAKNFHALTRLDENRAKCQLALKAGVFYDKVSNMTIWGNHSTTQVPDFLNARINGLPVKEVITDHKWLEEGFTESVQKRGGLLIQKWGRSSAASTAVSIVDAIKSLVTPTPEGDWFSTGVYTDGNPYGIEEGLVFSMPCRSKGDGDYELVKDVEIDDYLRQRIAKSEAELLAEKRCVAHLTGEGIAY

O=C(O)CC(=O)C(=O)O [oxaloacetate]
NADPH oxidation monitored at 340 nm, Michaelis-Menten fit [1]: Activities of recombinant MDHWT and MDHΔC | NADPH oxidation monitored at 340 nm, Michaelis-Menten fit [2]: Activities of recombinant MDHWT and MDHΔC
